Like-named read-outs stand apart in the source and are kept apart here.
What was measured:
[1] = cited from earlier work
[2] = cited from earlier work; remark: listed apart in the source
Evaluation of safety = type: in vivo, human; conditions: single oral 50 mg with water, lemon or Seville orange juice; nine subjects
[3] = type: in vivo, human
[4] = cited from earlier work; remark: listed apart in the source
[5] = Seville orange juice, healthy volunteers
[6] = Seville orange juice compared with water

## COc1cc2c(c(OC)c1OC)-c1ccc(OC)c(=O)cc1[C@@H](NC(C)=O)CC2 [colchicine]
[1]; [5]
  decrease in AUC: 20%
  decrease in Cmax: 24%
  delay in Tmax: 1 h

## COc1ccc2c(c1)[C@]13CCCC[C@@H]1[C@H](C2)N(C)CC3 [dextromethorphan]
[1]; with Seville orange juice, effects lasted 3 days
  change in bioavailability: increased significantly

## CCOC(=O)C1=C(C)NC(C)=C(C(=O)OC)C1c1cccc(Cl)c1Cl (centres unmarked) [felopdipine]
[2]; with Seville orange
  increase in AUC: 93%
[2]; with grapefruit
  increase in AUC: 76%

## CCCc1nn(C)c2c(=O)[nH]c(-c3cc(S(=O)(=O)N4CCN(C)CC4)ccc3OCC)nc12 [sildenafil]
Evaluation of safety
  adverse effects reported: without reporting any adverse effect
[3]; [6]
  change in Tmax: non-significant changes
  increase in AUC0–∞: 44%
  increase in Cmax: 8%
  reduction of apparent oral clearance (CL/F): 30%
[3]; male, human, plasma, po, 50 mg
  Tmax: ~1 h
[4]; co-administration of ciprofloxacin and clarithromycin
  change in bioavailability: significantly increases
[4]; with grapefruit juice, Cmax unaffected
  increase in bioavailability and AUC: 23%

Reference: PMC5045831 (Drugs in R&D, 2016)
